Results reported in patent US20200399250A1, “Pyrimidine Derivatives as Tropomyosin Receptor Kinase A (TRKA) Inhibitors” (BIOMED X GMBH, priority 2017, published 2020).
“Also recorded” adds a separate entry of the source.

What was measured:
[1] = target: T1, TrkA (Homo sapiens, UniProt P04629); test: KINOMEscan primary screen against TrkA; format: binding; settings: % of control
Experimental: (§1) Compounds were initially tested in a primary screen against TrkA (at 10 and 100 nM) and AurA (at 100 nM and 1 μM) using the KINOMEscan technology from DiscoverX Corporation, Fremont, Calif., USA (https://www.discoverx.com/services/drug-discovery-development-services/kinase-profiling/kinomescan).
Results were reported as % of control (% Ctrl.=(test compound signal−positive control signal)/(DMSO signal−positive control signal). KINOMEscan is an active site-directed competition binding assay that quantitatively measures the ability of a compound to compete with an immobilized, active-site directed ligand.

[2] = target: T2, AurA (Homo sapiens, UniProt O14965); test: KINOMEscan primary screen against AurA; format: binding; settings: % of control
T2 sequence (O14965 1-403): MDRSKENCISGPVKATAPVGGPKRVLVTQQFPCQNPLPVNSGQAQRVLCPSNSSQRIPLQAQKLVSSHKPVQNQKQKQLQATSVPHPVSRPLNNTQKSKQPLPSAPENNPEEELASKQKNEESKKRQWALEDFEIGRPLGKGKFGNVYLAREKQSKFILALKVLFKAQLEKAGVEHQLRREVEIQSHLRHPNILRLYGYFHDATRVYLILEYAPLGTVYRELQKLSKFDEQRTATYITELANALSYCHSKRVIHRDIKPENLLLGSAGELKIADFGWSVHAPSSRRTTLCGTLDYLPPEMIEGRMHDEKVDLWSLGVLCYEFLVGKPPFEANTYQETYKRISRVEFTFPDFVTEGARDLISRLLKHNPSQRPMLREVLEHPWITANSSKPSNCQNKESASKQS
Experimental: as §1

[3] = target: T1, TrkA; test: KdELECT Kd measurement (KINOMEscan), TrkA; format: binding
Experimental: (§2) Kd measurements were done via the KdELECT product service from DiscoverX Corporation (Freemont, Calif., USA) which also employs the KINOMEscan technology. Here, inhibitor binding constants (Kd values) are calculated from duplicate 11-point dose-response curves.

[4] = target: TrkA; test: KdELECT Kd measurement (KINOMEscan), TrkA; format: binding; settings: TrkA pKd versus AurA pKd
Experimental: as §2

[5] = target: T2, AurA; test: KdELECT Kd measurement (KINOMEscan), AurA; format: binding
Experimental: as §2

[6] = test system: panel of 97 kinases; test: Selectivity profiling, scanEDGE kinase panel (KINOMEscan); format: binding; settings: 100 nM, cut-off <35% ctrl
Experimental: Selectivity profiling was done over a panel of 97 kinases at 100 nM concentration (scanEDGE assay panel from Discover X, which also uses the KINOMEscan technology, whereat KIT(D816V) and KIT (V559D, T6701) were replaced by TrkB and TrkC). […] The employed profiling panel consisted of the following kinases: ABL1(T3151)-phosphorylated, ABL1-nonphosphorylated, ABL1-phosphorylated, ACVR1B, ADCK3, AKT1, AKT2, ALK, AURKA, AURKB, AXL, BMPR2, BRAF, BRAF (V600E), BTK, CDK11, CDK2, CDK3, CDK7, CDK9, CHEK1, CSF1R, CSNK1D, CSNK1G2, DCAMKL1, DYRK1B, EGFR, EGFR (L858R), EPHA2, ERBB2, ERBB4, ERK1, FAK, FGFR2, FGFR3, FLT3, GSK3B, IGF1R, IKK-alpha, IKK-beta, INSR, JAK2 (JH1domain-catalytic), JAK3 (JH1domain-catalytic), JNK1, JNK2, JNK3, KIT, LKB1, MAP3K4, MAPKAPK2, MARK3, MEK1, MEK2, MET, MKNK1, MKNK2, MLK1, p38-alpha, p38-beta, PAK1, PAK2, PAK4, PCTK1, PDGFRA, PDGFRB, PDPK1, PIK3C2B, PIK3CA, PIK3CG, PIM1, PIM2, PIM3, PKAC-alpha, PLK1, PLK3, PLK4, PRKCE, RAF1, RET, RIOK2, ROCK2, RSK2 (Kin. Dom. 1-N-terminal), SNARK, SRC, SRPK3, TGFBR1, TIE2, TRKA, TRKB, TRKC, TSSK1B, TYK2 (JH1domain-catalytic), ULK2, VEGFR2, YANK3, ZAP70

[7] = target: full-length human TrkA receptor (Homo sapiens, UniProt P04629); test: PathHunter cellular functional assay, antagonism of β-NGF; format: cell-based; settings: antagonism at EC80 (0.03 μg/ml) of β-NGF; read-out: Cellular assay [RC50]
From the text: The two compounds a1 and b7 were additionally tested in a functional assay using the PathHunter® technology (DiscoverX Corporation, Freemont, Calif., USA; https://www.discoverx.com/technologies-platforms/enzyme-fragment-complementation-technoloqy/cell-based-efc-assays/protein-protein-interactions/kinases-cell-based-(rtk-ctk)). In this assay, the full-length human TrkA receptor (i.e. including ligand-binding and kinase domains) is expressed as a C-terminal (intracellular) fusion with a small peptide epitope, called Prolink™ (PK). Furthermore, a SH2 domain containing protein (i.e. Shc1) is co-expressed with a larger Enzyme Acceptor (EA) fragment. Activation of the TrkA receptor by adding the agonist ligand (β-NGF), leads to the auto-phosphorylation of the kinase and subsequent binding of the Shc1-EA protein. That recruitment results in an active B-galactosidase enzyme that is detected by addition of a chemiluminescent substrate.
Compounds were tested for antagonism using EC80 concentration (i.e. 0.03 μg/ml) of β-NGF. Data was normalized to the maximal and minimal response observed in the presence of EC80 agonist ligand (3-NGF) and vehicle (DMSO, final concentration 1%), respectively.

[8] = duplicate 11-point dose-response curves

T1 sequence (P04629 33-796): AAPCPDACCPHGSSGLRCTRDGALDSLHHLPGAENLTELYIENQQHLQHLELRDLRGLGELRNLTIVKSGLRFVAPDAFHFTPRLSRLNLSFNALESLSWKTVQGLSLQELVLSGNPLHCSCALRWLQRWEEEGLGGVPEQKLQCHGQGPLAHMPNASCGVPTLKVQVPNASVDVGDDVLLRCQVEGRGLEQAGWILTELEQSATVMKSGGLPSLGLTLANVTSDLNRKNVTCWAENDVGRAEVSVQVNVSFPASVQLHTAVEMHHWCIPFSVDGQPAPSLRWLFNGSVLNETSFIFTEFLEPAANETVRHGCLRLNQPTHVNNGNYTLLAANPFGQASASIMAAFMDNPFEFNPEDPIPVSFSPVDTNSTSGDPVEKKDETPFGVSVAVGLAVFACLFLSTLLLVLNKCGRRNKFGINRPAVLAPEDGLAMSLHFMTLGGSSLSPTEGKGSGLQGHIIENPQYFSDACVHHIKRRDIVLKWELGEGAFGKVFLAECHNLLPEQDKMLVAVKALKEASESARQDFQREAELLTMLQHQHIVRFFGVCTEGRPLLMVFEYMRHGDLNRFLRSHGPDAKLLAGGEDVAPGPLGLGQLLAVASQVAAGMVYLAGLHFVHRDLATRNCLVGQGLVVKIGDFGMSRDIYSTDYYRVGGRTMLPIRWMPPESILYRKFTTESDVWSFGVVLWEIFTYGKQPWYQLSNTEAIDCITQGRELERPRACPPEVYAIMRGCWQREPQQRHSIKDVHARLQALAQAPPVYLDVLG
Chain of full-length human TrkA receptor (P04629 33-796): as above
Chain of full-length human TrkA receptor (P01138 122-241 partner): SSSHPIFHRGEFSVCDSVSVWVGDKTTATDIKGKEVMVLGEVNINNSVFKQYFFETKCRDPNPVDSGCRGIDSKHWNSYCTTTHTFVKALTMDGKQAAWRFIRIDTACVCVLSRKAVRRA

% Ctrl. TrkA @10 nM ([1]; 10 nM compound): 9.3 % Ctrl.
% Ctrl. TrkA @100 nM ([1]; 100 nM compound): 0.5 % Ctrl.
% Ctrl. AurA @100 nM ([2]; 100 nM compound): 15 % Ctrl.
% Ctrl. AurA @1 μM ([2]; 1 μM compound): 0.85 % Ctrl.
TrkA [pKd] [3]: 9.0
Kd [3, 8]: 0.0011 µM
ΔpKd [4]: 1.4
AurA [pKd] [5]: 7.6
Kd [5, 8]: 0.028 µM
# Hits ([6]; N = 92 non-mutant kinases): 18
Selectivity Score ([6]; inhibited kinases/tested kinases): 0.196
IC50 [7]: 0.023 µM
Compound: Cc1cc(Nc2cc(N3CCN(C)CC3)nc(SCc3ccc(F)cc3)n2)n[nH]1 [b7, 2-{[(4-fluorophenyl)methyl]sulfanyl}-N-(5-methyl-1H-pyrazol-3-yl)-6-(4-methylpiperazin-1-yl)pyrimidin-4-amine]
List of inhibited kinases [6]: TrkA, TrkB, TrkC, ABL1, ALK,; also recorded: AurA, FLT3, FMS, JAK2, JAK3,; also recorded: KDR, KIT, NuaK2, PDGFRb, PLK4,; also recorded: RET, SRC, TYK2
